Source: US20260215418A1, “HYDROCARBON ALCOHOLS AND THEIR DERIVATIVES AS SYNERGISTS IN PESTICIDE ACTIVITY” (priority 2022, published 2026)
“Also recorded” adds a separate entry of the source.

Legend:
Assay type in all cases: in vivo
Musca domestica L. = experiment: Contact test on non-porous tile, Musca domestica; details: for synergizing effect on Azamethiphos / synergizing effect on Cypermethrin / synergizing effect on Spinosad: Musca domestica L.; for synergizing effect on Azamethiphos: synergist applied with Azamethiphos; for synergizing effect on Cypermethrin: synergist applied with Cypermethrin; for synergizing effect on Spinosad: synergist applied with Spinosad; for mortality at 680 µg/mL: 0.68 mg/ml
Blatta lateralis = experiment: Contact test on non-porous tile, Blatta lateralis; details: Blatta lateralis; synergist applied with Imidacloprid
Experimental: 1 ml of Composition 24 was distributed on the tile. […] 1 ml of Composition 20c was distributed on a tile. […] 1 ml of Composition 20d was distributed on a tile.
1 ml of Composition 24 was distributed on the tile. […] 1 ml of Composition 28 was distributed on a tile. […] Each experiment (A-B) was conducted in duplicate.
1 ml of Composition 24 was distributed on the tile. […] 1 ml of Composition 21 was distributed on a tile.
1 ml of Composition 4b was distributed on the tile. […] 1 ml of Composition 31c was distributed on a tile. […] 1 ml of Composition 31d was distributed on a tile. […] 1 ml of Composition 31d was distributed on a tile.
1 ml of Composition 24 was distributed on the tile. […] 1 ml of Composition 35 was distributed on a tile. […] 1 ml of Composition 40b was distributed on a tile. […] 1 ml of Composition 42 was distributed on a tile.

Blattella germanica = experiment: Contact test on non-porous tile, Blattella germanica; details: Blattella germanica; synergist applied with Imidacloprid
Experimental: 1 ml of Composition 36 was distributed on the tile. […] 1 ml of Composition 37 was distributed on a tile.

[1] = Musca domestica, single substance alone, 48 h, read-out: Mortality %/time (h)

| Compound | synergizing effect on Azamethiphos (Musca domestica L.) | synergizing effect on Cypermethrin (Musca domestica L.) | synergizing effect on Spinosad (Musca domestica L.) | mortality at 150 µg/mL (Musca domestica L.; Musca domestica, single substance alone, 0.15 mg/ml, 48 h, read-out: Mortality %/time (h)) | mortality at 510 µg/mL (Musca domestica L.; Musca domestica, single substance alone, 0.51 mg/ml, 48 h, read-out: Mortality %/time (h)) | mortality at 680 µg/mL (Musca domestica L.; [1]) | mortality at 1020 µg/mL (Musca domestica L.; Musca domestica, single substance alone, 1.02 mg/ml, 48 h, read-out: Mortality %/time (h)) | mortality at 33000 µg/mL (Musca domestica L.; Musca domestica, single substance alone, 33.00 mg/ml, 48 h, read-out: Mortality %/time (h)) | synergizing effect on Imidacloprid (Blatta lateralis) | Mortality %/time (h) (Musca domestica L.; single substance alone, 0.15 mg/ml, 48 h) | Mortality %/time (h) (Musca domestica L.; single substance alone, 0.51 mg/ml, 48 h) | Mortality %/time (h) (Musca domestica L.; single substance alone, 0.88 mg/ml, 48 h) | Mortality %/time (h) (Musca domestica L.; single substance alone, 28.53 mg/ml, 48 h) | synergizing effect on Imidacloprid (Blattella germanica) |
| --- | --- | --- | --- | --- | --- | --- | --- | --- | --- | --- | --- | --- | --- | --- |
| CCCCCCCC/C=C\CCCCCCCCOC(C)=O [Oleyl acetate] | high synergizing effect | high synergizing effect | fine synergizing effect | 0% | 0% | 60% | 0% | 18% | excellent synergizing effect |  |  |  |  |  |
| CCCCCCCCOC(=O)OCCCCCCCC [dioctyl carbonate] | excellent synergizing effect | high synergizing effect | fine synergizing effect |  |  | 33% |  |  | good synergizing effect |  |  |  |  |  |
| Oleic alcohol [Oleic alcohol 95%] | high synergizing effect | synergistic effect, comparable to the activity shown by PBO; also recorded: good synergizing effect |  |  |  |  |  |  | same synergizing effect of PBO | 1/48 ^ % | 5/48 ^ % | 8/48 ^ % | 18/48 ^ % | fine synergizing effect |
